Assay: xn = mol fraction of the nth substance listed
Details: Fluid (supercritical or subcritical phases), Buoyancy - hydrostatic balance with magnetic suspension - one sinker

N#N [nitrogen] + O=C=O
mass density [kg/m3]
Details	x1 = 0.95	x1 = 0.99
298.11 K, 30854 kPa	318.784	–
298.15 K, 30889 kPa	–	306.308
298.18 K, 10974 kPa	128.536	–
298.18 K, 26965 kPa	–	276.485
298.18 K, 28960 kPa	304.08	291.991
298.19 K, 10975 kPa	–	124.2
298.19 K, 12974 kPa	151.108	–
298.19 K, 12977 kPa	–	145.801
298.19 K, 14973 kPa	173.056	–
298.19 K, 14975 kPa	–	166.746
298.19 K, 16968 kPa	194.247	–
298.19 K, 16973 kPa	–	186.99
298.19 K, 18971 kPa	214.733	206.482
298.19 K, 20971 kPa	–	225.196
298.19 K, 20972 kPa	234.34	–
298.19 K, 22968 kPa	253.055	–
298.19 K, 22969 kPa	–	243.092
298.19 K, 24966 kPa	270.906	–
298.19 K, 24967 kPa	–	260.186
298.19 K, 26964 kPa	287.919	–
323.18 K, 10979 kPa	116.684	–
323.18 K, 14973 kPa	156.725	–
323.18 K, 28962 kPa	–	266.975
323.18 K, 30957 kPa	291.768	280.954
323.19 K, 12977 kPa	136.963	–
323.19 K, 14974 kPa	–	151.425
323.19 K, 20974 kPa	212.443	–
323.19 K, 22968 kPa	229.628	–
323.19 K, 24967 kPa	246.174	–
323.19 K, 24968 kPa	–	237.145
323.19 K, 26966 kPa	–	252.374
323.19 K, 28961 kPa	277.225	–
323.2 K, 12978 kPa	–	132.477
323.2 K, 16971 kPa	175.903	–
323.2 K, 16973 kPa	–	169.822
323.2 K, 18972 kPa	194.494	–
323.2 K, 18975 kPa	–	187.629
323.2 K, 20974 kPa	–	204.784
323.2 K, 22971 kPa	–	221.285
323.2 K, 26964 kPa	262.031	–
323.21 K, 10980 kPa	–	112.998
348.15 K, 14974 kPa	143.613	–
348.16 K, 12976 kPa	125.56	–
348.16 K, 26965 kPa	–	232.594
348.16 K, 28963 kPa	–	246.335
348.17 K, 10975 kPa	107.02	103.828
348.18 K, 12974 kPa	–	121.664
348.18 K, 20972 kPa	–	188.207
348.18 K, 24966 kPa	–	218.313
348.18 K, 30959 kPa	–	259.551
348.19 K, 16972 kPa	161.157	–
348.19 K, 18968 kPa	–	172.299
348.19 K, 30958 kPa	268.893	–
348.2 K, 14978 kPa	–	139.081
348.2 K, 22973 kPa	–	203.544
348.2 K, 26965 kPa	240.883	–
348.21 K, 16969 kPa	–	155.902
348.21 K, 22970 kPa	210.667	–
348.21 K, 24968 kPa	226.054	–
348.22 K, 18976 kPa	178.236	–
348.23 K, 20969 kPa	194.689	–
348.24 K, 28961 kPa	255.123	–
373.11 K, 14975 kPa	132.811	–
373.14 K, 10975 kPa	99.052	–
373.14 K, 10978 kPa	–	96.257
373.14 K, 24968 kPa	–	202.615
373.14 K, 26966 kPa	–	216.025
373.16 K, 20970 kPa	180.142	–
373.16 K, 28962 kPa	–	228.969
373.17 K, 12975 kPa	116.113	–
373.17 K, 12978 kPa	–	112.737
373.17 K, 30957 kPa	249.734	–
373.18 K, 14973 kPa	–	128.781
373.18 K, 16969 kPa	148.99	–
373.19 K, 18968 kPa	164.767	–
373.19 K, 22970 kPa	194.991	–
373.19 K, 24968 kPa	209.378	–
373.19 K, 26966 kPa	223.295	–
373.19 K, 30958 kPa	–	241.48
373.2 K, 16976 kPa	–	144.455
373.2 K, 18972 kPa	–	159.653
373.2 K, 22969 kPa	–	188.731
373.2 K, 28961 kPa	236.723	–
373.21 K, 20974 kPa	–	174.438
398.12 K, 10979 kPa	92.339	–
398.15 K, 16976 kPa	–	134.736
398.17 K, 10981 kPa	–	89.797
398.17 K, 26965 kPa	–	201.89
398.17 K, 30957 kPa	–	226.029
398.17 K, 30958 kPa	233.41	–
398.18 K, 28962 kPa	221.089	–
398.18 K, 28963 kPa	–	214.146
398.19 K, 14974 kPa	–	120.089
398.19 K, 20968 kPa	–	162.734
398.2 K, 12973 kPa	108.135	–
398.2 K, 14975 kPa	123.655	–
398.2 K, 18973 kPa	–	148.923
398.2 K, 22966 kPa	–	176.162
398.2 K, 24970 kPa	–	189.239
398.21 K, 18973 kPa	153.504	–
398.21 K, 22970 kPa	181.754	–
398.21 K, 24969 kPa	195.274	–
398.21 K, 26967 kPa	208.381	–
398.22 K, 12974 kPa	–	105.084
398.22 K, 20969 kPa	167.809	–
398.23 K, 16974 kPa	138.767	–
423.11 K, 14972 kPa	–	112.628
423.13 K, 24967 kPa	183.194	–
423.13 K, 26965 kPa	195.591	–
423.13 K, 28962 kPa	207.636	–
423.13 K, 30956 kPa	219.326	–
423.14 K, 22965 kPa	170.413	–
423.16 K, 16970 kPa	–	126.322
423.16 K, 18970 kPa	143.837	–
423.16 K, 20971 kPa	157.318	–
423.17 K, 12979 kPa	–	98.597
423.17 K, 18968 kPa	–	139.677
423.18 K, 10978 kPa	86.517	–
423.18 K, 10979 kPa	–	84.203
423.18 K, 12971 kPa	101.311	–
423.18 K, 14973 kPa	115.841	–
423.18 K, 16967 kPa	129.977	–
423.18 K, 20972 kPa	–	152.731
423.18 K, 30957 kPa	–	212.642
423.19 K, 22973 kPa	–	165.419
423.21 K, 24968 kPa	–	177.709
423.21 K, 28961 kPa	–	201.322
423.22 K, 26966 kPa	–	189.691
